Measurements: patent publication US10947271B2, “Antibacterial agents” (THE UNIVERSITY OF QUEENSLAND, priority 2014, dated 2021)

Legend:
[1] = tested on: Staphylococcus aureus MRSA ATCC 43300; test: MIC assay, S. aureus MRSA ATCC 43300; assay type: cell-based; details: 24 h incubation, visual reading
Summary of the method: (§1)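 Twofold broth microdilution in Mueller Hinton broth; compounds tested from 8 μg/ml to 0.003 μg/ml. Mid-log cultures were inoculated at 5×10e5 CFU/mL and incubated 24 h at 37° C. MIC was the lowest concentration with no visible growth.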

[2] = tested on: Streptococcus pneumoniae MDR ATCC 700677; test: MIC assay, S. pneumoniae MDR ATCC 700677; assay type: cell-based; details: 24 h incubation, visual reading
Summary of the method: as §1

MRSA (Strain ATCC 43300) = test: Murine thigh infection model (MRSA); assay type: in vivo, Staphylococcus aureus; details: neutropenic CD1 mice
Procedure: Summary: Adult (8 week old) female CD1 mice were made neutropenic by two injections of cyclophosphamide 4 days and 1 day prior to infection. An inoculum of 10^5 cfu MRSA (Strain ATCC 43300) was injected intramuscularly into both left and right thighs of all mice. […] After an additional two hours, a 50 μL sample of blood was obtained from the tail bleed to analyse for presence of antibiotic compound. […] Thighs were then removed, weighed and homogenised in a fixed volume of saline. The homogenate solution was filtered, diluted and seeded onto agar plates, which were incubated overnight at 37° C. Colony counts were used to establish the cfu in the thigh homogenates, the cfu/thigh, and the cfu/g of thigh.
Compound preparation: Cyclophosphamide monohydrate (Sigma) was dissolved in sterile saline to a concentration of 30 mg/mL. Likewise, vancomycin (Sigma) and MCC compounds were also dissolved in sterile saline to a final concentration of 60 mg/mL and 18.5 mg/mL respectively. All compounds were prepared in low binding Eppendorf tubes and kept at −20° C. until used.
In vivo experimental assay: Eight week old female outbred CD1 mice (UQBR-AIBN) were rendered neutropenic by injecting two doses of cyclophosphamide intraperitoneally 4 days (150 mg/kg) and 1 day (100 mg/kg) prior to experimental infection. The infection model using MRSA was established by intramuscular injection of 50 μL of early-log-phase bacterial MRSA suspension (around 2×10^6 cfu/mL) in saline into both thigh muscles. […] Untreated animals received equivalent volume of saline (Baxter). The mice were monitored for signs of normal behaviour (i.e. grooming, eating, drinking, sleeping, and alertness) during and following dosing. Two hours after saline/antibiotic treatment, 0.05 mL of blood was collected by tail incision. 24 hours after MRSA infection, mice were euthanized and blood collected from the heart by cardiac puncture (saline group) or by tail incision (Vancomycin and MCC compound treated groups) as outlined in FIG. 1. For each mouse, both thighs were collected aseptically by cutting the leg at the hip and knee, placed in 10 mL of cold sterile saline and the individual weight of each thigh recorded.
Preparation of injectable MRSA solution: An MRSA subculture bacterial isolate (ATCC43300) was taken from the storage at −80° C. and freshly seeded on agar plates for overnight (O/N) growth. From the O/N culture preparation, a single colony was diluted into 10-12 mL of Mueller Hinton broth (MHB) and incubated O/N at 37° C. A log-phase subculture was obtained by adding 100 μL of O/N subculture in 10 mL MHB and incubated for a further 2-3 hours. Finally, the OD600 value of the bacterial suspension was determined and the colony forming units per millilitre (cfu/mL) extrapolated. A full dilution of the bacterial cell suspension in saline was achieved by washing (3220×g for 10 min) and the OD600 in saline determined. The suspension was then diluted out accordingly in order to achieve a 2×10^6 cfu/mL solution (10^5 cfu in 50 μL/thigh).
Thus, 10 μL of the injectable MRSA suspension was diluted down to 10-1000 fold, each dilution plated out onto agar plates and incubated at 37° C. for 24 hours.
Thigh homogenates and CFU determination: Thighs were homogenized at 20,000 rpm for 15 seconds using a Polytron MR2500E using a […] probe (all Kinematica).

[3] = tested on: Enterococcus faecium MDR Van A ATCC 51559; test: MIC assay, E. faecium MDR Van A ATCC 51559; assay type: cell-based; details: 24 h incubation, visual reading
Summary of the method: as §1

[4] = single subcutaneous dose 10 mg/kg

SMILES | Minimum Inhibitory Concentration (MIC) Staph. aureus ATCC43300 [1] | Minimum Inhibitory Concentration (MIC) S. pneumoniae ATCC 700677 [2] | Average Reduction log Δcfu MRSA/thigh after 26 h (MRSA (Strain ATCC 43300); [4]) | Minimum Inhibitory Concentration (MIC) E. faecium ATCC51559 [3] | Average Reduction log Δcfu MRSA/thigh after 26 h (MRSA (Strain ATCC 43300); single subcutaneous dose 50 mg/kg)
CNC(CC(C)C)C(=O)NC1C(=O)NC(CC(N)=O)C(=O)NC2C(=O)NC3C(=O)NC(C(=O)NC(C(=O)NCCCNC(=O)C(CCCCN)NC(=O)C(CCCCN)NC(=O)c4ccc(Oc5ccccc5)cc4)c4cc(O)cc(O)c4-c4cc3ccc4O)C(O)c3ccc(c(Cl)c3)Oc3cc2cc(c3OC2OC(CO)C(O)C(O)C2OC2CC(C)(N)C(O)C(C)O2)Oc2ccc(cc2Cl)C1O (centres unmarked) [MCC_005364] | xxxxx (xxxxx = <0.01) | xxxx (xxxx = 0.01-<0.1) | xx (xx = 2-4) | xx (xx = 1-4) | –
CNC(CC(C)C)C(=O)NC1C(=O)NC(CC(N)=O)C(=O)NC2C(=O)NC3C(=O)NC(C(=O)NC(C(=O)NCCCNC(=O)C(CCCCN)NC(=O)C(CCCCN)NC(=O)CCCOc4ccccc4)c4cc(O)cc(O)c4-c4cc3ccc4O)C(O)c3ccc(c(Cl)c3)Oc3cc2cc(c3OC2OC(CO)C(O)C(O)C2OC2CC(C)(N)C(O)C(C)O2)Oc2ccc(cc2Cl)C1O (centres unmarked) [MCC_005365] | xxx (xxx = 0.1-<1) | xxx (xxx = 0.1-<1) | – | x (x = >4) | xx (xx = 2-4)
CCCCCCCCCC(=O)N[C@@H](CCCNC(=N)N)C(=O)NCCCNC(=O)[C@H]1NC(=O)[C@H]2NC(=O)[C@H](NC(=O)[C@@H]3NC(=O)[C@H](CC(N)=O)NC(=O)[C@H](NC(=O)[C@@H](CC(C)C)NC)[C@H](O)c4ccc(c(Cl)c4)Oc4cc3cc(c4O[C@@H]3O[C@H](CO)[C@@H](O)[C@H](O)[C@H]3O[C@H]3C[C@](C)(N)[C@H](O)[C@H](C)O3)Oc3ccc(cc3Cl)[C@H]2O)c2ccc(O)c(c2)-c2c(O)cc(O)cc21 [MCC_005481] | xxxxx (xxxxx = <0.01) | xxxx (xxxx = 0.01-<0.1) | xxx (xxx = 4-6) | x (x = >4) | –
CCCCCCCC(O)CC(=O)N[C@@H](CCCCN)C(=O)N[C@@H](CCCCN)C(=O)NCCCNC(=O)[C@H]1NC(=O)[C@H]2NC(=O)[C@H](NC(=O)[C@@H]3NC(=O)[C@H](CC(N)=O)NC(=O)[C@H](NC(=O)[C@@H](CC(C)C)NC)[C@H](O)c4ccc(c(Cl)c4)Oc4cc3cc(c4O[C@@H]3O[C@H](CO)[C@@H](O)[C@H](O)[C@H]3O[C@H]3C[C@](C)(N)[C@H](O)[C@H](C)O3)Oc3ccc(cc3Cl)[C@H]2O)c2ccc(O)c(c2)-c2c(O)cc(O)cc21 (some centres unmarked) [MCC_005483] | xxxx (xxxx = 0.01-<0.1) | xxxx (xxxx = 0.01-<0.1) | xxx (xxx = 4-6) | x (x = >4) | –
CCCCCCCCCC(=O)N[C@@H](CCCCN)C(=O)N[C@@H](CCCCN)C(=O)N1CCC(CNC(=O)[C@H]2NC(=O)[C@H]3NC(=O)[C@H](NC(=O)[C@@H]4NC(=O)[C@H](CC(N)=O)NC(=O)[C@H](NC(=O)[C@@H](CC(C)C)NC)[C@H](O)c5ccc(c(Cl)c5)Oc5cc4cc(c5O[C@@H]4O[C@H](CO)[C@@H](O)[C@H](O)[C@H]4O[C@H]4C[C@](C)(N)[C@H](O)[C@H](C)O4)Oc4ccc(cc4Cl)[C@H]3O)c3ccc(O)c(c3)-c3c(O)cc(O)cc32)CC1 [MCC_005489] | xxxx (xxxx = 0.01-<0.1) | xxxx (xxxx = 0.01-<0.1) | xxx (xxx = 4-6) | xx (xx = 1-4) | –
CN[C@H](CC(C)C)C(=O)N[C@H]1C(=O)N[C@@H](CC(N)=O)C(=O)N[C@H]2C(=O)N[C@H]3C(=O)N[C@H](C(=O)N[C@H](C(=O)NCCCC[C@H](NC(=O)[C@H](CCCCN(C)C)NC(=O)c4ccc(Oc5ccccc5)cc4)C(=O)O)c4cc(O)cc(O)c4-c4cc3ccc4O)[C@H](O)c3ccc(c(Cl)c3)Oc3cc2cc(c3O[C@@H]2O[C@H](CO)[C@@H](O)[C@H](O)[C@H]2O[C@H]2C[C@](C)(N)[C@H](O)[C@H](C)O2)Oc2ccc(cc2Cl)[C@H]1O [MCC_007221] | xxx (xxx = 0.1-<1) | xx (xx = 1-4) | x (x = 0-2) | x (x = >4) | –
CCCCCCCCC(=O)NC(CCCCN(C)C)C(=O)NCCCNC(=O)C1NC(=O)C2NC(=O)C(NC(=O)C3NC(=O)C(CC(N)=O)NC(=O)C(NC(=O)C(CC(C)C)NC)C(O)c4ccc(c(Cl)c4)Oc4cc3cc(c4OC3OC(CO)C(O)C(O)C3OC3CC(C)(N)C(O)C(C)O3)Oc3ccc(cc3Cl)C2O)c2ccc(O)c(c2)-c2c(O)cc(O)cc21 (centres unmarked) [MCC_007338] | xxx (xxx = 0.1-<1) | xxx (xxx = 0.1-<1) | xx (xx = 2-4) | x (x = >4) | –
CNC(CC(C)C)C(=O)NC1C(=O)NC(CC(N)=O)C(=O)NC2C(=O)NC3C(=O)NC(C(=O)NC(C(=O)NCCCNC(=O)C(CCCCN)NC(=O)c4ccc(Oc5ccccc5)cc4)c4cc(O)cc(O)c4-c4cc3ccc4O)C(O)c3ccc(c(Cl)c3)Oc3cc2cc(c3OC2OC(CO)C(O)C(O)C2OC2CC(C)(N)C(O)C(C)O2)Oc2ccc(cc2Cl)C1O (centres unmarked) [MCC_007407] | xxxx (xxxx = 0.01-<0.1) | xxxx (xxxx = 0.01-<0.1) | xxx (xxx = 4-6) | x (x = >4) | –
